Measured values published in patent EP4603105A1, “PHARMACEUTICAL COMPOSITION CONTAINING CYCLIC COMPOUND HAVING SELECTIVE KRAS INHIBITORY EFFECT AGAINST HRAS AND NRAS” (CHUGAI SEIYAKU KABUSHIKI KAISHA, priority 2022, dated 2024).
Where a SMILES comes first, the peptide text is derived from it. Bridges are numbered along the chain shown (N, C = ends). [ ]: non-standard residue; d: D form. The star is where a group is joined. hPhe(3,5-F2-4-CF3) = N[C@@H](CCc1cc(F)c(C(F)(F)F)c(F)c1)C(=O)O; NPrPhe(4-CF3) = CCCN[C@@H](Cc1ccc(C(F)(F)F)cc1)C(=O)O; NMeGly(cPent) = CN[C@H](C(=O)O)C1CCCC1; NMeD = CN[C@@H](CC(=O)O)C(=O)O; NMeL = CN[C@@H](CC(C)C)C(=O)O; αMeV = CC(C)[C@](C)(N)C(=O)O; Morpholide = C1CN(*)CCO1; Aze = O=C(O)[C@@H]1CCN1; Sar = CNCC(=O)O

Legend:
[1] = system: human lung cancer strain NCI-H441; format: cell-based
Procedure, shortened: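 Signal came from […] measured per well once the reagent was added. Beforehand, cells were cultured at 37°C and 5% carbon dioxide on a compound series serially diluted in dimethyl sulfoxide.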

[2] = target: GDP-bound KRAS wild-type protein (Homo sapiens, UniProt P01116); assay: Binding to KRAS by surface plasmon resonance (SPR), dissociation constant KD
GDP-bound KRAS wild-type protein, sequence (P01116 1-188 isoform P01116-2): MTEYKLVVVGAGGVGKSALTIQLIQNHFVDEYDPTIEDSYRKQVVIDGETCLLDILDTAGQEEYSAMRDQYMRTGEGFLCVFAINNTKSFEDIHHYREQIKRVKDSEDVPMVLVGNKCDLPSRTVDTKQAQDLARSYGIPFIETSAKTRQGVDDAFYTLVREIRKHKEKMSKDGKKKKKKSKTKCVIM
Procedure, shortened: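 SPR, 30°C: Avi-biotin RAS·GDP captured via Biotin CAPture (~100–300 RU); running buffer HBS pH 7.4, 1 mM DTT, 10 mM MgCl2, 0.01% Tween 20, 10 µM GDP, 4% DMSO. Single-cycle kinetics, 100 µL/min, 75 s injections; 1:1 model → KD.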

[3] = target: GDP-bound NRAS wild-type protein (Homo sapiens, UniProt P01111); assay: Binding to NRAS by surface plasmon resonance (SPR), KD and KD ratio to KRAS
GDP-bound NRAS wild-type protein, sequence (P01111 whole entry): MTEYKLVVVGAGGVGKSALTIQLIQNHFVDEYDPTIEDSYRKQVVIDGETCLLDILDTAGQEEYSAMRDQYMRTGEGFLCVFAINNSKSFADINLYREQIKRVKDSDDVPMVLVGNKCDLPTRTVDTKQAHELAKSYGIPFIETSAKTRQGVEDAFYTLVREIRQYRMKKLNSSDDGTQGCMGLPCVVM
Procedure, shortened: (§1)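 Each cycle, GDP-bound biotin-Avi RAS was captured (~100–300 RU), compound concentrations were injected low to high for 75 s each at 100 µL/min, then the chip was regenerated. Buffer: HBS pH 7.4, 10 mM MgCl2, 10 µM GDP, 1 mM DTT, 4% DMSO; 30°C. KD from a 1:1 binding model.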

[4] = target: HRAS wild-type protein (Homo sapiens, UniProt P01112); assay: Binding to HRAS by surface plasmon resonance (SPR), KD and KD ratio to KRAS
HRAS wild-type protein, sequence (P01112 whole entry): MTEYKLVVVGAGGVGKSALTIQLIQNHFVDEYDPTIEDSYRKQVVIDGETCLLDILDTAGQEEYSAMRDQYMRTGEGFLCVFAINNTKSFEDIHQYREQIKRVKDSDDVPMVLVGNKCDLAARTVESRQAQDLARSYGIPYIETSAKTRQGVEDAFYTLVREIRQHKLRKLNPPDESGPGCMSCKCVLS
Procedure, shortened: as §1

[5] = ratio of KD for GDP-bound NRAS wild-type protein to KD for KRAS
[6] = ratio of KD for HRAS wild-type protein to KD for KRAS
[7] = Single Cycle Kinetics, 1:1 binding model
[8] = ratio of KD value for GDP-bound NRAS wild-type protein to KD value for KRAS (SPR)
[9] = ratio of KD value for HRAS wild-type protein to KD value for KRAS (SPR)
[10] = ratio of the KD value with respect to GDP-bound NRAS wild-type protein to the KD value with respect to KRAS
[11] = ratio of the KD value with respect to HRAS wild-type protein to the KD value with respect to KRAS

IC50 [1] | Kd ([2]; Single Cycle Kinetics) | Kd [2, 7] | Kd ([2]; 1:1 binding model) | Compound | NRAS /KRAS [3, 5] | HRAS /KRAS [4, 6] | NRAS /KRAS [3, 8] | HRAS /KRAS [4, 9] | NRAS /KRAS [3, 10] | HRAS /KRAS [4, 11]
11.5 nM | 0.13 nM | – | – | CCO[C@@H]1C[C@H]2C(=O)NC3(CCC3)C(=O)N(C)[C@@H](C3CCCC3)C(=O)N(C)[C@H](C(=O)N3CCOCC3)CC(=O)N(C)[C@@H](CC(C)C)C(=O)N[C@@H]([C@@H](C)CC)C(=O)N(C)CC(=O)N(C)[C@H]3CC=C(C)CN(C3=O)[C@@H](Cc3ccc(C(F)(F)F)cc3)C(=O)N(C)CC(=O)N[C@@H](CCc3cc(F)c(C(F)(F)F)c(F)c3)C(=O)N2C1 [PP0826] | C (A compound having a KD ratio of 0.1 or more and less than 3 is denoted as C) | B (a compound having 3 or more and less than 10 is denoted as B) | – | – | – | –
118 nM | – | 2.6 nM | – | CCO[C@@H]1C[C@H]2C(=O)NC3(CCC3)C(=O)N(C)[C@@H](C3CCCC3)C(=O)N(C)[C@H](C)CC(=O)N(C)[C@@H](CC3CC3)C(=O)N[C@@H]([C@@H](C)CC)C(=O)N(C)CC(=O)N(C)[C@H]3C/C=C\CCN(C3=O)[C@@H](Cc3ccc(F)cc3C)C(=O)N(C)CC(=O)N[C@@H](CCc3cc(F)c(C(F)(F)F)c(F)c3)C(=O)N2C1 [PP1489] | – | – | B (a compound having 3 or more and less than 10 is denoted as B) | B (a compound having 3 or more and less than 10 is denoted as B) | – | –
130 nM | – | – | 1.4 nM | CCO[C@@H]1C[C@H]2C(=O)NC3(CC(C)(C)C3)C(=O)N(C)[C@@H](C3CCCC3)C(=O)N(C)[C@H](C(=O)N(C)C)CC(=O)N(C)[C@@H]([C@H](C)OC)C(=O)N[C@@H]([C@@H](C)CC)C(=O)N3CCC[C@H]3C(=O)N(C)[C@H]3C/C=C\CCN(C3=O)[C@@H](Cc3ccc(C)cc3)C(=O)N(C)CC(=O)N[C@@H](CCc3ccc(C(F)(F)F)c(OC)c3)C(=O)N2C1 [PP3197] | A (a compound having 10 or more and less than 20 is denoted as A) | A (a compound having 10 or more and less than 20 is denoted as A) | – | – | – | –
16.1 nM | – | 0.17 nM | – | CCCN(C)C(=O)[C@@H]1CC(=O)N(C)[C@@H](C2CCC2)C(=O)N[C@@H]([C@@H](C)CC)C(=O)N(C)CC(=O)N(C)[C@H]2C/C=C\CCN(C2=O)[C@@H](Cc2ccc(C(F)(F)F)cc2)C(=O)N(C)CC(=O)N[C@@H](CCc2cc(F)c(C(F)(F)F)c(F)c2)C(=O)N2C[C@H](OCC)C[C@H]2C(=O)NC2(CCC2)C(=O)N(C)[C@@H](C2CCCC2)C(=O)N1C [PP1998] | – | – | – | – | A (a compound having 10 or more and less than 20 is denoted as A) | B (a compound having 3 or more and less than 10 is denoted as B)
66.2 nM | 0.62 nM | – | – | CCO[C@@H]1C[C@H]2C(=O)NC3(CCC3)C(=O)N(C)[C@@H](C3CCCC3)C(=O)N(C)[C@H](C(=O)N(C)C)CC(=O)N(C)[C@@H](CC)C(=O)N[C@@H]([C@@H](C)CC)C(=O)N(C)CC(=O)N(C)[C@H]3CCCCCN(C3=O)[C@@H](Cc3ccc4ccsc4c3)C(=O)N(C)CC(=O)N[C@@H](CCc3cc(F)c(C(F)(F)F)c(F)c3)C(=O)N2C1 [PP0910] | B (a compound having 3 or more and less than 10 is denoted as B) | B (a compound having 3 or more and less than 10 is denoted as B) | – | – | – | –
3.3 nM | – | – | 0.55 nM | CCC[C@H]1C(=O)N[C@@H]([C@@H](C)CC)C(=O)N(C)CC(=O)N(C)[C@H]2C/C=C\CCN(C2=O)[C@@H](Cc2ccc(C(F)(F)F)cc2)C(=O)N(C)CC(=O)N[C@@H](CCc2ccc3sc(F)c(C)c3c2)C(=O)N2C[C@H](OCC)C[C@H]2C(=O)NC2(CC(C)(C)C2)C(=O)N(C)[C@@H](C2CCCC2)C(=O)N(C)[C@H](C(=O)N(C)C)CC(=O)N1C [PP2948] | A (a compound having 10 or more and less than 20 is denoted as A) | A (a compound having 10 or more and less than 20 is denoted as A) | – | – | – | –
8.8 nM | – | – | 0.15 nM | CCC[C@H]1C(=O)N[C@@H](C2CCCC2)C(=O)N(C)CC(=O)N(C)[C@H]2C/C=C\CCN(C2=O)[C@@H](Cc2ccc(C)cc2)C(=O)N(C)CC(=O)N[C@@H](CCc2ccc(C(F)(F)F)c(OC)c2)C(=O)N2C[C@H](OCC)C[C@H]2C(=O)NC2(CC(C)(C)C2)C(=O)N(C)[C@@H](CC(C)(C)C)C(=O)N(C)[C@H](C(=O)N(C)C)CC(=O)N1C [PP3005] | A (a compound having 10 or more and less than 20 is denoted as A) | B (a compound having 3 or more and less than 10 is denoted as B) | – | – | – | –
28.8 nM | – | 0.14 nM | – | CCC[C@H]1C(=O)N[C@@H]([C@@H](C)CC)C(=O)N(C)CC(=O)N(C)[C@H]2C/C=C\CCN(C2=O)[C@@H](Cc2ccc(C)cc2)C(=O)N(C)CC(=O)N[C@@H](CCc2ccc(C(F)(F)F)c(OC)c2)C(=O)N2C[C@H](C)C[C@H]2C(=O)NC2(CCC2)C(=O)N(C)[C@@H](C2CCCC2)C(=O)N(C)[C@H](C(=O)N(C)C)CC(=O)N1C [PP1859] | – | – | A (a compound having 10 or more and less than 20 is denoted as A) | A (a compound having 10 or more and less than 20 is denoted as A) | – | –
170 nM | 4 nM | – | – | CCCN1C(=O)CN(C)C(=O)[C@@H]2CCN2C(=O)[C@H]([C@@H](C)CC)NC(=O)[C@H](CC(C)C)N(C)C(=O)C[C@@H](C(=O)N2CCOCC2)N(C)C(=O)[C@H](C2CCCC2)N(C)C(=O)[C@](C)(C(C)C)NC(=O)[C@@H]2CCCN2C(=O)[C@H](CCc2cc(F)c(C(F)(F)F)c(F)c2)NC(=O)CN(C)C(=O)[C@@H]1Cc1ccc(C(F)(F)F)cc1 [PP0773] ([NMeL]I[Aze][Sar][NPrPhe(4-CF3)][Sar][hPhe(3,5-F2-4-CF3)]P[αMeV][NMeGly(cPent)][NMeD]-Morpholide; lactam N-11) | B (a compound having 3 or more and less than 10 is denoted as B) | B (a compound having 3 or more and less than 10 is denoted as B) | – | – | – | –
150 nM | – | – | 2.3 nM | CCO[C@@H]1C[C@H]2C(=O)NC3(CC(C)(C)C3)C(=O)N(C)[C@@H](C3CCCC3)C(=O)N(C)[C@H](C(=O)N(C)CC)CC(=O)N(C)[C@@H]([C@H](C)OC)C(=O)N[C@@H]([C@@H](C)CC)C(=O)N3CCC[C@H]3C(=O)N(C)[C@H]3C/C=C\CCN(C3=O)[C@@H](Cc3ccc(C)cc3)C(=O)N(C)CC(=O)N[C@@H](CCc3ccc(C(F)(F)F)c(OC)c3)C(=O)N2C1 [PP3161] | A (a compound having 10 or more and less than 20 is denoted as A) | A (a compound having 10 or more and less than 20 is denoted as A) | – | – | – | –
5.5 nM | – | 0.063 nM | – | CCO[C@@H]1C[C@H]2C(=O)NC3(CC(C)(C)C3)C(=O)N(C)[C@@H](C3CCCC3)C(=O)N(C)[C@H](C(=O)N(C)C)CC(=O)N(C)[C@@H](CC3CC3)C(=O)N[C@@H]([C@@H](C)CC)C(=O)N(C)CC(=O)N(C)[C@H]3C/C=C\CCN(C3=O)[C@@H](Cc3ccc(C)cc3)C(=O)N(C)CC(=O)N[C@@H](CCc3ccc(C(F)(F)F)c(OC)c3)C(=O)N2C1 [PP1903] | – | – | – | – | A (a compound having 10 or more and less than 20 is denoted as A) | B (a compound having 3 or more and less than 10 is denoted as B)
6 nM | – | 0.071 nM | – | CC[C@H](C)[C@@H]1NC(=O)[C@H](CC(C)C)N(C)C(=O)C[C@@H](C(=O)N(C)C)N(C)C(=O)[C@H](C2CCCC2)N(C)C(=O)C2(CCC2)NC(=O)[C@@H]2C[C@H](C)CN2C(=O)[C@H](CCc2ccc(C(F)(F)F)c(Cl)c2)NC(=O)CN(C)C(=O)[C@H](Cc2ccc(C)cc2)N2CC/C=C\C[C@@H](C2=O)N(C)C(=O)CN(C)C1=O [PP1852] | – | – | A (a compound having 10 or more and less than 20 is denoted as A) | B (a compound having 3 or more and less than 10 is denoted as B) | – | –
18.9 nM | – | 0.069 nM | – | CCCN(C)C(=O)[C@@H]1CC(=O)N(C)[C@@H](CCOC)C(=O)N[C@@H]([C@@H](C)CC)C(=O)N(C)CC(=O)N(C)[C@H]2C/C=C\CCN(C2=O)[C@@H](Cc2ccc(C(F)(F)F)cc2)C(=O)N(C)CC(=O)N[C@@H](CCc2ccc(C(F)(F)F)c(OC)c2)C(=O)N2C[C@@H](C)C[C@H]2C(=O)NC2(CCC2)C(=O)N(C)[C@@H](C2CCCC2)C(=O)N1C [PP2029] | – | – | – | – | A (a compound having 10 or more and less than 20 is denoted as A) | B (a compound having 3 or more and less than 10 is denoted as B)
143 nM | – | 0.95 nM | – | CCO[C@@H]1C[C@H]2C(=O)NC3(CCC3)C(=O)N(C)[C@@H](C(CC)CC)C(=O)N(C)[C@H](C(=O)N3CCOCC3)CC(=O)N(C)[C@@H](CC3CC3)C(=O)N[C@@H]([C@@H](C)CC)C(=O)N(C)CC(=O)N(C)[C@H]3C/C=C\CCN(C3=O)[C@@H](Cc3ccc(F)cc3)C(=O)N(C)CC(=O)N[C@@H](CCc3cc(F)c(C(F)(F)F)c(F)c3)C(=O)N2C1 [PP1527] | – | – | A (a compound having 10 or more and less than 20 is denoted as A) | A (a compound having 10 or more and less than 20 is denoted as A) | – | –
1040 nM | 7.5 nM | – | – | CCO[C@@H]1C[C@H]2C(=O)NC(C)(C)C(=O)N(C)[C@@H](C3CCCC3)C(=O)N(CC)[C@H](C(=O)N3CCOCC3)CC(=O)N(C)[C@@H](CC(C)C)C(=O)N[C@@H]([C@@H](C)CC)C(=O)N(C)CC(=O)N(C)[C@H]3CCCCCN(C3=O)[C@@H](Cc3ccc(C(F)(F)F)cc3)C(=O)N(C)CC(=O)N[C@@H](CCc3cc(F)c(C(F)(F)F)c(F)c3)C(=O)N2C1 [PP0958] | B (a compound having 3 or more and less than 10 is denoted as B) | B (a compound having 3 or more and less than 10 is denoted as B) | – | – | – | –
